# According to PubChem BioAssay (NCI):
# “And” between values parts separate entries of the source, which are not always exact repeats. Identical values can stand only once.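 Protocol summary: plate cells (96-well), add compound at 5 concentrations, incubate 48 h, interpolate endpoints linearly. At the GI50, growth is halved. TGI: total growth inhibition.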
# Tests used:
# Test in all cases: inhibition of tumour cell growth, NCI panel, 48 h
# SNB-78 CNS = test system: SNB-78 CNS
# XF 498 CNS = test system: XF 498 CNS
# M19-MEL melanoma = test system: M19-MEL melanoma
# DMS 114 small cell lung = test system: DMS 114 small cell lung
# LXFL 529 NSCLC = test system: LXFL 529 NSCLC
# HS 578T breast = test system: HS 578T breast
# DU-145 prostate = test system: DU-145 prostate
# PC-3 prostate = test system: PC-3 prostate
# NCI/ADR-RES ovarian = test system: NCI/ADR-RES ovarian
# MDA-MB-435 = test system: MDA-MB-435
SMILES,TGI (SNB-78 CNS),TGI (XF 498 CNS),TGI (M19-MEL melanoma),TGI (DMS 114 small cell lung),TGI (LXFL 529 NSCLC),also measured
O=C(Nc1cccc([N+](=O)[O-])c1)C(=O)C(C(=O)c1ccccc1-c1ccccc1)C1OC(=O)c2ccccc21 (configuration not stated),> 100 µM,41.4 µM,38.1 µM,33.1 µM,27.4 µM,
COC[C@@H](N=CN1CCc2cc(OC)c(OC)cc2[C@@H]1C)C(C)(C)C,,> 100 µM,> 100 µM,> 100 µM,> 100 µM,
CC[C@@]1(O)C[C@H](OC2CC(N(C)C)C(OC3CC(O)C(OC4CCC(=O)C(C)O4)C(C)O3)C(C)O2)c2c(cc3c(c2O)C(=O)c2c(O)cccc2C3=O)[C@H]1C(=O)OC (some centres not stated),,0.165 µM and 0.0552 µM,0.144 µM and 0.279 µM,0.154 µM and 0.173 µM,1.14 µM,TGI (HS 578T breast): 0.135 µM; TGI (DU-145 prostate): 0.42 µM and 1.73 µM; TGI (PC-3 prostate): 0.132 µM and 0.062 µM; TGI (NCI/ADR-RES ovarian): 0.696 µM and 0.878 µM; GI50 (XF 498 CNS): 6.81 nM and 28.2 nM and 23.6 nM; GI50 (LXFL 529 NSCLC): 4.22 nM
O=C(/C=C/c1ccccc1)CC1OC(=O)c2ccccc21 (configuration not stated),,> 100 µM,> 100 µM,> 100 µM,> 100 µM,
C=CC1[C@H]2COC(C)(C)O[C@@H]2CC(=O)C1(C)C (some centres not stated),> 100 µM,> 100 µM,> 100 µM,> 100 µM,> 100 µM,
Clc1ccc(Cc2nc3ccccc3s2)c(Cl)c1,,26.5 µM,30.5 µM,36.5 µM,31.1 µM,
CCCCC1CC(c2cccc([N+](=O)[O-])c2)=NO1 (configuration not stated),> 100 µM,,> 100 µM,> 100 µM,> 100 µM,
O=C(c1ccc(Cl)cc1)c1ccc(OCCCCCCCCCCOc2ccc(C(=O)c3ccc(Cl)cc3)cc2)cc1,> 100 µM,,,> 100 µM,,
CC(C)=CCC/C(C)=C/CC/C(C)=C/Cc1c(O)c2ccccc2oc1=O,> 100 µM,,> 100 µM,> 100 µM,> 100 µM,
CS(=O)(=O)OCCN1CCN(C(=O)c2cccc3c(Nc4ccc(S(=O)(=O)N=C(N)N)cc4)c4ccccc4nc23)CC1,> 100 µM,> 100 µM,> 100 µM,> 100 µM,,
O=C(c1ccccc1)C1CCCCN1C(=O)c1ccccc1 (configuration not stated),> 100 µM,,> 100 µM,> 100 µM,> 100 µM,
CCOC(=O)C1(Br)C(c2ccccc2)NC(=O)NC1(C)Br (configuration not stated),> 100 µM,> 100 µM,> 100 µM,> 100 µM,> 100 µM,GI50 (HS 578T breast): 37.4 µM; TGI (HS 578T breast): > 100 µM; GI50 (MDA-MB-435): 20.5 µM; TGI (MDA-MB-435): 57.3 µM; GI50 (DU-145 prostate): 44.5 µM; TGI (DU-145 prostate): > 100 µM; GI50 (PC-3 prostate): 22.3 µM; TGI (PC-3 prostate): > 100 µM; GI50 (NCI/ADR-RES ovarian): 28.1 µM; TGI (NCI/ADR-RES ovarian): 89.8 µM
OC1c2ccccc2C2(O)C1C(c1ccccc1)C(c1ccccc1)C2(O)c1ccccc1 (configuration not stated),,,38 µM,41.8 µM,54.6 µM,
CC1CC2CC(=O)CC3(C1)C2CCCN3CCCO (configuration not stated),> 100 µM,> 100 µM,> 100 µM,> 100 µM,> 100 µM,
COC(=O)C(C(=O)C(=O)Nc1ccc(C(F)(F)F)cc1[N+](=O)[O-])c1csc(-n2nc(-c3ccccc3)cc2-c2ccccc2)n1 (configuration not stated),> 100 µM,,> 100 µM,> 100 µM,> 100 µM,
CC1(C)C(=O)C(C)(C)C1=NN,> 100 µM,> 100 µM,> 100 µM,> 100 µM,> 100 µM,
C=C(CCCCCCCCC)CC(=O)SCCNC(=O)CCNC(=O)C(O)C(C)(C)COP(=O)(O)OP(=O)(O)OCC1OC(n2cnc3c(N)ncnc32)C(O)C1OP(=O)(O)O (configuration not stated),65 µM,> 100 µM,87.8 µM,> 100 µM,> 100 µM,TGI (HS 578T breast): > 100 µM; TGI (MDA-MB-435): 67.7 µM; TGI (DU-145 prostate): > 100 µM; TGI (PC-3 prostate): > 100 µM; TGI (NCI/ADR-RES ovarian): > 100 µM
O=Cc1ccccc1OCCOc1cc(OCCOc2ccccc2C=O)c(OCCOc2ccccc2C=O)cc1OCCOc1ccccc1C=O,> 100 µM,> 71.5 µM,> 100 µM,> 100 µM,> 100 µM,
C[C@H](NC(=O)[C@@H]1CSSC[C@@H](NC(=O)c2nc3ccccc3cc2O)C(=O)NCC(=O)N1C)c1ccccc1,,,,,,GI50 (HS 578T breast): 11.2 µM; TGI (HS 578T breast): 34.1 µM; GI50 (MDA-MB-435): 0.737 µM; TGI (MDA-MB-435): 6.59 µM; GI50 (DU-145 prostate): 5.78 µM; TGI (DU-145 prostate): 12.7 µM; GI50 (PC-3 prostate): 5.98 µM; TGI (PC-3 prostate): 13.5 µM; GI50 (NCI/ADR-RES ovarian): 11 µM; TGI (NCI/ADR-RES ovarian): 50 µM
